Data as given in publication PMC10860182 (ACS Medicinal Chemistry Letters, 2024).
Where two headings read alike, the source gives them in different places.

What was measured:
[1] = predicted hepatic clearance, human hepatic microsomes
human 5-HT2A = human 5-HT2A (Homo sapiens, UniProt P28223); settings: for 5-HT2A % Max: % 5-HT Max, human 5-HT2A-CHO cells; for higher agonist potency for 5-HT2B and 5-HT2C relative to 5-HT2A: compared with 5-HT2A potency
human 5-HT2C = human 5-HT2C (Homo sapiens, UniProt P28335); settings: % 5-HT Max, human 5-HT2C-CHO cells
human 5-HT2C, sequence (P28335 33-458): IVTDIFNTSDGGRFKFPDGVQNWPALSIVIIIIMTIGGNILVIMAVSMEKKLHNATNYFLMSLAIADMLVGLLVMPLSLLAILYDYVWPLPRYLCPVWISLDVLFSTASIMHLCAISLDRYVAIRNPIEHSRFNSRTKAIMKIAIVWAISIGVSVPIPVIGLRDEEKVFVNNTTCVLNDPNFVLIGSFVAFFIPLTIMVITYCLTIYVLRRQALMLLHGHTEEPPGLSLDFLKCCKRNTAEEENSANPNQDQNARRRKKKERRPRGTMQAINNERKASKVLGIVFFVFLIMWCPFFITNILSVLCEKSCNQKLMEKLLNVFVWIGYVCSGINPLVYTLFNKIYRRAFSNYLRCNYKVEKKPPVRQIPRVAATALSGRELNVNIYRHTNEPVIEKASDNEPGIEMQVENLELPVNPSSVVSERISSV

human 5-HT2B = human 5-HT2B (Homo sapiens, UniProt P41595); settings: % 5-HT Max, human 5-HT2B-HEK293 cells
human 5-HT2B, sequence (P41595 whole entry): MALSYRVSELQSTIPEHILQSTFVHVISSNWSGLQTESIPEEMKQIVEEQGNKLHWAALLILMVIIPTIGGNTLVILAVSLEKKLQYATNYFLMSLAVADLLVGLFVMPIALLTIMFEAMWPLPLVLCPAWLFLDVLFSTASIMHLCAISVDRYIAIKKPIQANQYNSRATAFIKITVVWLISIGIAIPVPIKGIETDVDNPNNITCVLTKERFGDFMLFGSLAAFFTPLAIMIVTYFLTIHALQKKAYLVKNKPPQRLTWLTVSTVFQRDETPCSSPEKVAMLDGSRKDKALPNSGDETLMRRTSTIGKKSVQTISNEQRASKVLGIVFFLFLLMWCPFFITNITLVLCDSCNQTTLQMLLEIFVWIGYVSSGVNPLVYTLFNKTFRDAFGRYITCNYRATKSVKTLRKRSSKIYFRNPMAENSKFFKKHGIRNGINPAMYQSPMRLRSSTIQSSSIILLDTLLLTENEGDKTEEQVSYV

5-HT2B = settings: read-out: 5-HT2B EC50; previously described, patent application ref 20; cited from earlier work
[2] = rat PK cassette, iv, 0.2 mg/kg
in vitro [3] = settings: human, plasma, pH 7.4
in vitro [4] = settings: rat, plasma, pH 7.4
P-gp [5] = target: T1, P-gp (Homo sapiens, UniProt P08183); settings: MDCK-MDR1 cells, 5 µM
T1 sequence (P08183 whole entry): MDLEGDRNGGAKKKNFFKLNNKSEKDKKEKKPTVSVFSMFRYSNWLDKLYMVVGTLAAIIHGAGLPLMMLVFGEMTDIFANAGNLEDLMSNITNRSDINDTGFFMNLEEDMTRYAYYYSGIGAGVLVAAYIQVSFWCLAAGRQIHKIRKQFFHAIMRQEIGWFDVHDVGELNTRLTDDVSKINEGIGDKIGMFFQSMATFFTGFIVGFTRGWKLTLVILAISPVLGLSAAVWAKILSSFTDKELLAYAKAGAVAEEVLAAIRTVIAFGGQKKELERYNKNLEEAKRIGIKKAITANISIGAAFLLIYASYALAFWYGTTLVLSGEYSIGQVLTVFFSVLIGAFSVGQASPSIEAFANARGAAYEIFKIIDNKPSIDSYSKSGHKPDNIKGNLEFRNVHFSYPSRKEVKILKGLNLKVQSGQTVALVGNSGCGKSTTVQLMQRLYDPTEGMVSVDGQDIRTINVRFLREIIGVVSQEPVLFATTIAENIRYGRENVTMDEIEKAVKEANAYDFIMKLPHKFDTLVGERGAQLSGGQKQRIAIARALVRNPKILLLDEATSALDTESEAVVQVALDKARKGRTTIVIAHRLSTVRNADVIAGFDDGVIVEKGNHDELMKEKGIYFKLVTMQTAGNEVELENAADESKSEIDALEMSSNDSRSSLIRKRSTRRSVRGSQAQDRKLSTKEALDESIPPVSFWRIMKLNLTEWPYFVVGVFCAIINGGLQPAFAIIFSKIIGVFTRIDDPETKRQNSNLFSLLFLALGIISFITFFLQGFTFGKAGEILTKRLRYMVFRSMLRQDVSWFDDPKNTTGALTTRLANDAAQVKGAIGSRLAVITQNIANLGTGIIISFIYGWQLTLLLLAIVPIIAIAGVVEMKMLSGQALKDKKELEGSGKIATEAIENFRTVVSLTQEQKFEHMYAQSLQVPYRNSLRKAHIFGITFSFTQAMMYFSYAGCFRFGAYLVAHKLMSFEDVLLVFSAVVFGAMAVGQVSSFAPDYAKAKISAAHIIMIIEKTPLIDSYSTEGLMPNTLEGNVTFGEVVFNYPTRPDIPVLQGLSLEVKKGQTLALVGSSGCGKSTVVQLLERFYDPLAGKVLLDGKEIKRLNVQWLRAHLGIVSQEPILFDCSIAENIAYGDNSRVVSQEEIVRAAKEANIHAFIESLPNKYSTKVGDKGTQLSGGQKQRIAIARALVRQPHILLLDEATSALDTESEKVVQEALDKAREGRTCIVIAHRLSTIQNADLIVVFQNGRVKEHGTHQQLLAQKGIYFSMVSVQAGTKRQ

[6] = predicted hepatic clearance, rat
P-gp [7] = target: T1, P-gp; test: in vitro; settings: MDCK-MDR1
in vitro [8] = settings: mouse, plasma, pH 7.4
in vivo = settings: male, Sprague Dawley, rat, iv, 0.2 mg/kg

human 5-HT2A, sequence (P28223 whole entry): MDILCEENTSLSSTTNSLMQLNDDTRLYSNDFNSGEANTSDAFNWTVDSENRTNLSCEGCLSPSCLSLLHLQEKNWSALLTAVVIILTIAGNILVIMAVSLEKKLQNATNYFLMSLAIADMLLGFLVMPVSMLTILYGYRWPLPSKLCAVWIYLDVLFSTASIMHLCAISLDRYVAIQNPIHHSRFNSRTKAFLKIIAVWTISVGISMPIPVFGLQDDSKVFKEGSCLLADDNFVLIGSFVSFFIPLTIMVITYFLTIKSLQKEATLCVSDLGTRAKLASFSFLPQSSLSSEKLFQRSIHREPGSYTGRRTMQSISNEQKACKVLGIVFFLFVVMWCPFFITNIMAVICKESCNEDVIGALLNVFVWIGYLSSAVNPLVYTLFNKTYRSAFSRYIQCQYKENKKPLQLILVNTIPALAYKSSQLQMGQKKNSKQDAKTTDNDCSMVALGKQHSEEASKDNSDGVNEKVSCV

With `COc1ccc2[nH]nc(CCN(C)C)c2c1` [Compound 6a] as the compound, how does the CLhep [1] read?
The CLhep was 12.1 (mL/min)/kg.

What about the “5-HT2A % Max” value (human 5-HT2A) of the same compound?
The value was 10.7 ± 0.6%.

And the “5-HT2C % Max” value (human 5-HT2C)?
The value was 32.1 ± 2.2%.

What about the “5-HT2B % Max” value (human 5-HT2B) of the same compound?
Its value is 48.0 ± 7.6%.

And the EC50 (5-HT2B)?
Its EC50 is > 10 µM.

Which results are given for `[2H]C([2H])(Cc1n[nH]c2ccc(OC)cc12)N(C)C` [Compound 6b]?
CLhep [1]: 11.7 (mL/min)/kg; 5-HT2A % Max (human 5-HT2A): 11.7 ± 0.6%; 5-HT2C % Max (human 5-HT2C): 32.3%; 5-HT2B % Max (human 5-HT2B): 60.5%

Which “5-HT2A % Max” value (human 5-HT2A) does the source give for `CN(C)CCc1n[nH]c2ccc(O)cc12` [Compound 16] here?
Its value is 26.2 ± 1.4%.

And the “5-HT2C % Max” value (human 5-HT2C)?
Its value is 53.3%.

What about the “5-HT2B % Max” value (human 5-HT2B) of the same compound?
The value was 53.7%.

Which results are given for `Nc1ccc2[nH]nc(C3=CCCNC3)c2c1` [Compound 19e]?
5-HT2A % Max (human 5-HT2A): 40.4 ± 1.3%; 5-HT2C % Max (human 5-HT2C): 86.9%; 5-HT2B % Max (human 5-HT2B): 96.1%

Which results are given for `COc1ccc2[nH]nc(C3=CCCNC3)c2c1` [Compound 19f]?
5-HT2A % Max (human 5-HT2A): 12.3 ± 1.8%; 5-HT2C % Max (human 5-HT2C): 59.8 ± 3.2%; 5-HT2B % Max (human 5-HT2B): 93.6%

Which CLp [2] does the source give for `Brc1ccc2[nH]nc(C3=CCCNC3)c2c1` [Compound 19d] here?
The CLp was 34.2 (mL/min)/kg.

And the CLhep [1]?
Its CLhep is 5.6 (mL/min)/kg.

And the “5-HT2A % Max” value (human 5-HT2A)?
The value was 41.4 ± 3.4%.

What about the fraction unbound at 6 h, 5 µM (in vitro [3]) of the same compound?
Its fraction unbound at 6 h, 5 µM is 0.12.

What about the fraction unbound at 6 h, 5 µM (in vitro [4]) of the same compound?
The fraction unbound at 6 h, 5 µM was 0.13.

And the PappA-B (P-gp [5])?
Its PappA-B is 7.9 10^–6 cm/s.

What about the “5-HT2C % Max” value (human 5-HT2C) of the same compound?
The value was 93.9%.

What about the CLhep [6] of the same compound?
Its CLhep is 58 (mL/min)/kg.

And the efflux ratio at 5 µM (P-gp [7])?
Its efflux ratio at 5 µM is 1.3.

What about the “5-HT2B % Max” value (human 5-HT2B) of the same compound?
The value was 82.8 ± 1.9%.

And the fraction unbound at 6 h, 5 µM (in vitro [8])?
Its fraction unbound at 6 h, 5 µM is 0.12.

And the Kp at 0.25 h (in vivo; brain)?
The Kp at 0.25 h was 5.4.

What about the Vd at 24 h (in vivo; plasma) of the same compound?
The Vd at 24 h was 6.33 L/kg.

And the half-life at 24 h (in vivo; plasma)?
Its half-life at 24 h is 2.8 h.

Which “5-HT2A % Max” value (human 5-HT2A) does the source give for `C1=C(c2n[nH]c3ccccc23)CNCC1` [Compound 19a] here?
Its value is 17.5 ± 3.2%.

What about the “higher agonist potency for 5-HT2B and 5-HT2C relative to 5-HT2A” value (human 5-HT2A) of the same compound?
The value was “approximately 10 fold”.

What about the “5-HT2C % Max” value (human 5-HT2C) of the same compound?
The value was 67.7 ± 6.6%.

What about the “5-HT2B % Max” value (human 5-HT2B) of the same compound?
Its value is 83.8 ± 1.9%.

For `Cn1nc(C2=CCCNC2)c2ccccc21` [Compound 19b], which “5-HT2A % Max” value (human 5-HT2A) is on record?
The value was 42.2 ± 3.7%.

And the “higher agonist potency for 5-HT2B and 5-HT2C relative to 5-HT2A” value (human 5-HT2A)?
Its value is “approximately 10 fold”.

What about the “5-HT2C % Max” value (human 5-HT2C) of the same compound?
Its value is 50.3 ± 2.4%.

What about the “5-HT2B % Max” value (human 5-HT2B) of the same compound?
Its value is 48.0 ± 4.8%.
